Measured values as given in patent publication US11504439B2, “Radioactive compound for diagnosis of malignant melanoma and use thereof” (INDUSTRY FOUNDATION OF CHONNAM NATIONAL UNIVERSITY, priority 2017, dated 2022).

Assays:
melanoma = conditions: cited from earlier work; for detection rate for melanoma: melanoma patients
B16F10 xenograft tumor = test: Comparison of [^18F]DMPY2 and [^18F]FDG, micro PET in melanoma xenograft model mice; type: in vivo; conditions: 1 hour after injection, 7.4 MBq
Experimental: (§1) The present inventors compared the imaging capabilities for melanoma and lung metastasis of the melanoma of [^18F]DMPY2 according to one embodiment of the present invention with the [^18F]FDG which has been used as a PET contrast agent for diagnosing cancer previously.
Particularly, melanoma xenograft model mice were prepared in the same manner as in Experimental Example 5, and then 7.4 MBq of [^18F]DMPY2 and [^18F]FDG were injected respectively, and systemic micro PET images were obtained at 1 hour after the injection.

[1] = system: lung metastasis of melanoma; test: Comparison of [^18F]DMPY2 and [^18F]FDG, micro PET in lung metastasis model mice; type: in vivo; conditions: 1 hour after injection, 7.4 MBq
Experimental: as §1
In addition, after lung metastasis model mice were prepared in the same manner as in Experimental Example 6, 7.4 MBq of [^18F]DMPY2 and [^18F]FDG were injected, respectively, and systemic micro PET images were obtained at 1 hour after the injection.

B16F10 cell line tumor [2] = test: Body distribution in small animal model of tumor transplantation; type: in vivo, nude mice
Experimental: (§2) In order to confirm the in vivo distribution of [^18F]DMFB, experiments were performed on nude mice whose tumor was grown to 100 to 150 mm^3 after about 10 days of injection of the B16F10 cell line into the right shoulder region. [^18F]DMFB was injected into the tail vein of the tumor-bearing mice at a dose of 7.4 MBq and sacrificed at 10, 30, 60, and 120 minutes, respectively to excise tumor tissue, blood and organs, and distribution of the radioactive compound was confirmed. The excised organs were measured by the gamma counter in each of the organs including blood, heart, lung, liver, spleen, stomach, intestine, kidney, pancreas, normal muscle, bone, brain, skin and eyes. The results were corrected by organ weight and expressed as a percentage of injections per gram of tissue (% ID/g).
as §2, with “In addition, in” for “In”, “[^18F]DMPY2 prepared in the example 3-2,” for “[^18F]DMFB,”, “tumors were” for “tumor was”, “[^18F]DMPY2” for “[^18F]DMFB”, “30,” for “30, 60,”, “60” for “120”

B16F10 cell line tumor [3] = test: Micro PET imaging using xenograft tumor mouse model; type: in vivo, nude mouse; conditions: for signals in other organs (micro PET): 1 hour / 60 min after injection
Experimental: To confirm the in vivo dynamics of [^18F]DMFB, B16F10 cell line was injected into the right shoulder region, and about 10 days later, micro PET was performed using a nude mouse bearing tumor ranging in size of 100-150 mm^3. The nude mice were anesthetized with Isoflurane inhalation and then injected with 7.4 MBq of [^18F]DMFB into the tail vein. Static micro PET images were obtained at 10, 30, and 60 minutes after injection of the radioactive compound. Tumor uptake was determined and the images were reconstructed using 3D-ordered subset expectation maximization (3D-OSEM).
In addition, the in vivo dynamics of [^18F] DMPY2 was also analyzed by the same method as described above except that micro PET images were taken at 30 and 60 minutes after injection.

[4] = In vitro stability test in human serum; type: in vitro ADME; conditions: 1.0 ml human serum, 37° C., 2 hours, ITLC-sg / radio TLC
Experimental: For in vitro stability test, 0.74 MBq/100 μl of [^18F] DMFB was dissolved in 1.0 ml human serum and then evaluated at 37° C. for 2 hours. The structural stability was measured by ITLC-sg. ITLC-sg (1×10 cm) was developed using MC:MeOH=10:1. The results were confirmed by radio TLC.

Melanin binding assay = test: Melanin binding assay
Experimental: 0.74 MBq of [^18F] DMFB was reacted with 2 mg of melanin and 10 ml of distilled water for 10, 30, 60, and 120 minutes at 37° C. with stirring. Then, centrifugation was performed at 16,800 rpm for 10 minutes, and […] of the supernatant was measured with a gamma counter. Percentages (%) of [^18F]DMFB bound to melanin were calculated based on the mixture of [^18F]DMFB and distilled water alone without melanin.

B16F10 melanoma cells = test: Melanoma cell uptake ratio experiment; type: cell-based, mouse
Experimental: B16F10 cell line, a mouse malignant melanoma cell line, was cultured in 5% CO2 in DMEM medium. Twenty-four hours prior to the experiment, cells were plated at 5×10^5 cells/well in 12-well plates and treated with 0.275 mM L-tyrosine-supplemented medium and non-supplemented medium, respectively. Then the cells were treated with 0.74 MBq of [18F]DMFB and incubated at 37° C. for 10, 30, and 60 min, respectively. After washing with PBS twice, the cells were treated with trypsin and the degree of [^18F]DMFB in the cell culture medium and cells in each time group was measured with a gamma counter, respectively. Three experiments were performed for each time group, and the results were expressed as percentage of the amount absorbed by cells versus the amount treated into the plate.

[5] = system: B16F10 metastatic foci (lung, liver, lymph node); test: In vivo distribution and PET imaging in lung/liver metastatic model mice; parameters: species or system C57BL/6 mice; conditions: 60 minutes from administering, lung metastasis model animal
Experimental: In order to examine the in vivo distribution and dynamics of [^18F]DMFB in lung/liver metastatic animal model, the present inventors divided C57BL/6 mice into two groups, one were injected with 1×10^5 cells of B16F10 cell line into the tail vein and the other were not injected with the tumor cells. After 14 days from the tumor cell inoculation, 7.4 MBq of [^18F]DMFB was injected into lung metastatic model mice and normal mice via tail vein, respectively and visualized at 60 min. Likewise, liver metastatic mice prepared by injecting 1×10^5 cells of B16F10 cell line into the tale vein were injected with 7.4 MBq of [^18F]DMFB into the tail vein. After 60 minutes of the administration, micro PET image was obtained. This liver metastatic model mice were produced among mice survived after a certain time after the induction of lung metastasis. Mice survived after the induction lung metastasis have metastasized to the lymph nodes and other organs after time elapse. […] After obtaining the images, the metastatic model mice and normal mice were sacrificed and lung and liver were excised and uptake ratio of the excised lung and liver were measured by a gamma counter. The results were corrected by organ weight and expressed as a percentage of injections per gram of tissue (% ID/g). […]

[6] = with time after injection (10, 30, 60 minutes)

N[C@@H](Cc1cc(O)c(O)cc1[18F])C(=O)O [^18F-DOPA, 6-^18F-Fluoro-L-dihydroxyphenylalanine]
detection rate for melanoma (melanoma): extremely low

Cc1cn([C@H]2C[C@H]([18F])[C@@H](CO)O2)c(=O)[nH]c1=O [^18F-FLT, 3′-^18F-fluoro-3′-deoxy-L-thymidine]
detection rate for melanoma (melanoma): extremely low

[11CH3]SCC[C@H](N)C(=O)O [^11C-methionine, L-[methyl-^11C]methionien]
detection rate for melanoma (melanoma): extremely low

O=C[C@H]([18F])[C@@H](O)[C@H](O)[C@H](O)CO [[^18F]FDG, F-18-fluoro-deoxyglucose, reference compound]
background noise (micro PET) (B16F10 xenograft tumor): background noise was widespread throughout the whole body
signal in tumor tissue (micro PET) (B16F10 xenograft tumor): showed a signal in the tumor tissue
signals / noise in other organs (micro PET) [1]: stronger than the lungs
suitability for diagnosing lung metastasis of melanoma [1]: unsuitable
identification of metastatic foci with less than 1 cm in diameter (melanoma; lung, liver, and brain): failed to identify

CN(C)CCNC(=O)c1ccc([18F])cn1 [[^18F]DMPY2]
absorption ratio in tumor tissues (B16F10 cell line tumor [2]; 1 hour after injection): accumulated most in tumor tissue
signal in other organs such as kidney (B16F10 cell line tumor [2]; over time to 1 hour after injection): rapidly decreased
signals in other organs (micro PET) (B16F10 cell line tumor [3]): very weak
signal in melanoma tumor tissue (micro PET) (B16F10 cell line tumor [3]; 1 hour after injection): clearly observed
signal in tumor tissue (micro PET) (B16F10 xenograft tumor): clear signal only in tumor tissue
signal to noise ratio (micro PET) (B16F10 xenograft tumor): very high
signal in the metastatic lung (micro PET) [1]: very strong signal
signals / noise in other organs (micro PET) [1]: little or no noise in other organs except bladder

CN(C)CCNC(=O)c1ccc([18F])cc1 [[^18F]DMFB, N-(2-(dimethylamino)ethyl)-4-[^18F]fluorobenzamide]
structural stability in human serum [4]: very stable even after 2 hours
binding rate to melanin (Melanin binding assay; 2 mg melanin, 37° C., 10 to 120 minutes): ≥ 85%
change of melanin binding rate over time (Melanin binding assay; after 120 minutes): did not significantly decrease
uptake in B16F10 melanoma cells (B16F10 melanoma cells; L-tyrosine not treated): hardly absorbed
uptake in B16F10 melanoma cells (B16F10 melanoma cells; medium supplemented with tyrosine (0.275 mM L-tyrosine), 10 to 60 minutes): significantly increased
radioactivity in internal organs (blood, heart, liver, lung, kidney) (B16F10 cell line tumor [2]; 10 minutes after injection, 7.4 MBq tail vein): strong radioactivity was detected
absorption ratio in stomach, liver, and kidney (B16F10 cell line tumor [2]; 1 hour after injection): relatively low
absorption ratio in tumor tissues (B16F10 cell line tumor [2]; 1 hour after injection): highest
radioactivity in the tumor tissue (B16F10 cell line tumor [2]; elapsed time of 2 hours): maintained
radioactivity in the visceral organs (B16F10 cell line tumor [2]; elapsed time of 2 hours): hardly detected
signals in other organs (micro PET) (B16F10 cell line tumor [3]): maintaining signal in other organs
radiation in the tumor tissue (micro PET) (B16F10 cell line tumor [3]; [6]): maintained
radioactivity in the liver (micro PET) (B16F10 cell line tumor [3]; [6]): decreased with time
detection of lung metastatic cancer (micro PET) [5]: possible to detect a lung metastatic cancer
